Tests used:
[1] = test system: α7B integrin; assay: Western blotting of α7B integrin in α7+/− myotubes; assay type: cell-based, mouse; details: 2 mM VPA for 72 hours
Experimental: (§1) α7^+/− myogenic cells were cultured on 1% gelatin-coated plastic plates in Ham's F-10 growth medium (20% FBS, 0.5% chick embryo extract, 5 ng/ml bFGF, 2 mM glutamine, 100 U/ml penicillin and 100 μg/ml streptomycin). After six passages, cells were grown in DMEM containing 20% FBS, 0.5% chick embryo extract, 2 mM glutamine, 100 U/ml penicillin and 100 μg/ml streptomycin. Differentiation was induced by switching the medium to DMEM containing 2% horse serum and antibiotics when cells attained 90% confluence. After 48 hours of differentiation, 2 mM VPA was added and supplied fresh every 24 hours. Wortmannin was used at 100 nM and added fresh every 24 hours.
(§2) Cell lysates of differentiating cells on 60 mm dishes were prepared as follows: the cells were washed twice with PBS and 200 μl Triton X-100 lysis buffer (2% Triton X-100, 20 mM Tris-Cl, pH 7.4, 150 mM NaCl, 1 mM EDTA, 1 mM EGTA, 2.5 mM NaPPi, 1 mM β-glycerophosphate, 1 mM sodium vanadate, 1:200 Protease Inhibitor Cocktail (EMD Chemicals, San Diego, Calif.) and 1 mM PMSF) were added. […] Protein concentrations were determined by the Bradford assay. […] The supernatants were collected and protein concentrations were determined spectrophotometrically at OD260 and OD280. […] ImageQuant analysis software (Molecular Dynamics, Sunnyvale, Calif.) was used to quantify band intensity.

[2] = test system: Akt; assay: Western blotting of activated and total Akt in α7+/− myotubes; assay type: cell-based, mouse
Experimental: as §1, with “After 48 hours of differentiation, 2 mM VPA was added and supplied fresh every 24 hours.” left out
To test whether Akt activation by VPA in α7^+/− myotubes is dependent on PI3K, α7^+/− cells were differentiated for 48 hours and treated for 72 hours with 2 mM VPA with or without 100 nM Wortmannin. Fresh drugs were added every 24 hours. Phase-contrast micrographs of the cultures were captured at the end of 72 hours of treatment. To determine status of Akt activation in the cultures, α7^+/− myotubes were treated as above and protein extracts were made at the end of 72 hours of treatment using a 2% Triton X-100 extraction buffer (see below). Immunoblotting for phospho- and total Akt were done as detailed below.
Cell lysates of differentiating cells on 60 mm dishes were prepared as follows: the cells were washed twice with PBS and 200 μl Triton X-100 lysis buffer (2% Triton X-100, 20 mM Tris-Cl, pH 7.4, 150 mM NaCl, 1 mM EDTA, 1 mM EGTA, 2.5 mM NaPPi, 1 mM β-glycerophosphate, 1 mM sodium vanadate, 1:200 Protease Inhibitor Cocktail (EMD Chemicals, San Diego, Calif.) and 1 mM PMSF) were added. The cells were scraped and transferred into Eppendorf tubes, the cell suspensions were triturated and centrifuged at 8000×g at 4° C. for 10 minutes, and the supernatants were collected. Lysates from mouse skeletal muscle were prepared as follows: the quadriceps muscles were dissected out, snap-frozen in liquid nitrogen and pulverized using a mortar and pestle. The powdered muscles were collected in Eppendorf tubes, 500 μl of Triton X-100 lysis buffer were added, rotated at 4° C. for 30 minutes, centrifuged at 8000×g for 10 minutes and the supernatants were collected. Protein concentrations were determined by the Bradford assay. SDS extracts of muscle were made by boiling powdered muscle in extraction buffer (100 mM Tris-Cl, pH 8.0, 10% SDS, 10 mM EDTA and 10% glycerol) for 10 minutes, vortexing vigorously, and centrifuging at 8000×g for 10 minutes. The supernatants were collected and protein concentrations were determined spectrophotometrically at OD260 and OD280. SDS-PAGE was carried out using 50 μg of protein for each sample and separated proteins were transferred to nitrocellulose membranes. For western blotting using antibodies against signaling proteins, membranes were blocked in 5% BSA in TBST for 2 hours at room temperature. For all other blots, incubations were done in 5% milk in TBST overnight at 4° C. The membranes were incubated overnight at 4° C. with primary antibodies diluted 1:1000 in 1% BSA in TBST. After washing in 1% BSA in TBST, blots were incubated for 1 hour in HRP-conjugated secondary antibodies diluted 1:5000 in 1% BSA in TBST. Blots were processed using the ECL kit (Amersham Biosciences, Piscataway, N.J.) and bands were visualized with Kodak Biomax MR film (Kodak, Rochester, N.Y.). ImageQuant analysis software (Molecular Dynamics, Sunnyvale, Calif.) was used to quantify band intensity.

[3] = test system: mTOR; assay: Western blotting of activated mTOR in α7+/− myotubes; assay type: cell-based, mouse; details: VPA for 48 or 72 hours
Experimental: as §1, §2

[4] = test system: p70S6K; assay: Western blotting of activated p70S6K in α7+/− myotubes; assay type: cell-based, mouse; details: VPA for 48 or 72 hours
Experimental: as §1, §2

[5] = test system: ERK; assay: Western blotting of activated ERK in α7+/− myotubes; assay type: cell-based, mouse; details: VPA treated myotubes
Experimental: as §1, §2

[6] = test system: mdx/utrn−/− mice; assay: Contracture assay in mdx/utrn−/− mice; assay type: in vivo, mouse; details: 35th day of treatment
Experimental: mdx/utrn−/− mice lack both dystrophin and utrophin, and were bred and genotyped as reported in Burkin, et al., Enhanced expression of the alpha 7 beta 1 integrin reduces muscular dystrophy and restores viability in dystrophic mice, J. Cell Biol. 152:1207-18 (2001). 240 mg/kg body weight of VPA was injected intraperitoneally twice daily into mdx/utrn^−/− mice (n=9) starting at 3 weeks of age, for a period of 5 weeks. Control mice were injected with saline (n=9). Body-weights were determined daily. On the 35th day of treatment, mdx/utrn^−/− mice injected with saline (n=9) or VPA (n=9) were tested for contractures in their hind limbs as follows: mice were placed on a flat table and were lifted by their tails so that their fore-limbs touched the table-surface and their hindquarters were in air. The positions of the hind-limbs were photographed. Normally, mice in this position extend their hind-limbs. The presence of contractures in dystrophic mice prevents full extension.

[7] = test system: type VI collagen; assay: Western blotting of type VI collagen in quadriceps; assay type: in vivo, mouse; details: 240 mg/kg i.p. twice daily for 5 weeks
Experimental: (§3) mdx/utrn−/− mice lack both dystrophin and utrophin, and were bred and genotyped as reported in Burkin, et al., Enhanced expression of the alpha 7 beta 1 integrin reduces muscular dystrophy and restores viability in dystrophic mice, J. Cell Biol. 152:1207-18 (2001). 240 mg/kg body weight of VPA was injected intraperitoneally twice daily into mdx/utrn^−/− mice (n=9) starting at 3 weeks of age, for a period of 5 weeks. Control mice were injected with saline (n=9). Body-weights were determined daily.
as §2, with “added. The cells were scraped and transferred into Eppendorf tubes, the cell suspensions were triturated and centrifuged at 8000×g at 4° C. for 10 minutes, and the supernatants were collected.” for “added.”

[8] = test system: Akt; assay: Western blotting of activated and total Akt in quadriceps of mdx/utrn−/− mice; assay type: in vivo, mouse; details: 240 mg/kg i.p. twice daily for 5 weeks
Experimental: as §3
as §2, with “added. The cells were scraped and transferred into Eppendorf tubes, the cell suspensions were triturated and centrifuged at 8000×g at 4° C. for 10 minutes, and the supernatants were collected.” for “added.”

[9] = mice; cited from earlier work

Which results are given for `CCCC(CCC)C(=O)O` [VPA, valproic acid]?
α7B integrin isoform increase [1]: 1.5 fold; levels of activated Akt, time course ([2]; 2 mM VPA daily, extracts every 24 hours up to 144 hours): higher levels of activated Akt at all time-points; concentration of maximal Akt activation ([2]; 1 hour exposure): 30 mM; levels of activated Akt ([2]; VPA for 48 or 72 hours): higher levels; higher levels of Akt in VPA treated cultures ([2]; beyond 96 hours): 2 to 3 fold; time to Akt activation ([2]; various concentrations of VPA, two-day old differentiating cultures): ≤ 1 h; levels of activated mTOR [3]: higher levels; levels of activated p70S6K [4]: higher levels; levels of activated ERK [5]: significantly lower levels; proportion of mice with contractures ([6]; 240 mg/kg i.p. twice daily, n=9): 11.1%; proportion with contractures, saline-injected group higher compared to VPA-injected group [6]: approximately 4 fold; less type VI collagen in muscle than control mice [7]: approximately 3 fold; levels of activated Akt in muscle [8]: Significantly higher levels; half-life [9]: about 45 minutes
